Measured values from patent publication US20060069123A1, “Substituted dipiperidine CCR2 antagonists” (priority 2004, published 2006).
Read-outs that look alike come from different tables or passages of the source.

Legend:
THP-1 cells [1] = details: Homo sapiens
CCR2 = target: T1, CCR2 (Homo sapiens, UniProt P41597)
T1 sequence (P41597 1-360 isoform P41597-2): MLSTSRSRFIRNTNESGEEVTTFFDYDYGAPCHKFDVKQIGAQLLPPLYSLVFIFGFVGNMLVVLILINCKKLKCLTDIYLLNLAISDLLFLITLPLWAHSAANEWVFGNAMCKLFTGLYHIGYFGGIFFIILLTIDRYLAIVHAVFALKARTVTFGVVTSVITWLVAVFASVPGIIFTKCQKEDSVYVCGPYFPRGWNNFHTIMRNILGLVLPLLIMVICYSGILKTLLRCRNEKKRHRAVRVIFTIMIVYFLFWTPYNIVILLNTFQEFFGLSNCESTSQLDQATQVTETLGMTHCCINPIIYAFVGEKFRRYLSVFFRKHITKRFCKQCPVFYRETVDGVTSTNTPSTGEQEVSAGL

THP-1 cells [2] = test: MCP-1 Induced Chemotaxis in THP-1 Cells; assay type: cell-based; details: Homo sapiens, THP-1 cells, MCP-1 0.01 μg/mL, 3 hours, read-out: Inhibition of MCP-1 Induced Chemotaxis IC50
[3] = THP-1, read-out: Inhibition of MCP-1 Induced Calcium Ion Influx IC50
[4] = THP-1, read-out: Inhibition of MCP-1 Induced Calcium Ion Influx IC50, THP-1 cells, 0.2 μM MCP-1, FLIPR

Row | SMILES | IC50 (THP-1 cells [1]; [3]) | IC50 (CCR2) | IC50 (THP-1 cells [2]) | IC50 (THP-1 cells [1]; [4]) | IC50 (CCR2; Inhibition of MCP-1 Binding IC50, 125I labeled MCP-1 binding to CCR2, THP-1 cells) | IC50 (THP-1 cells [2]; THP-1, 3 h)
1 | Cc1cccc(NC(=O)N2CCC(C(C(=O)O)N3CCC(c4c[nH]c5ccccc45)CC3)CC2)c1 (stereo not drawn) [Cpd 98, [4-(1H-indol-3-yl)-piperidin-1-yl]-(1-m-tolylcarbamoyl-piperidin-4-yl)-acetic acid] | 1850 nM | 890 nM | 2200 nM |  |  | 
2 | Cc1ccc(NC(=O)N2CCC(C(C(=O)O)N3CCC(c4c[nH]c5ccccc45)CC3)CC2)cc1 (stereo not drawn) [Cpd 99, [4-(1H-indol-3-yl)-piperidin-1-yl]-(1-p-tolylcarbamoyl-piperidin-4-yl)-acetic acid] | 1600 nM | 810 nM | 2500 nM |  |  | 
3 | Cc1cc(NC(=O)N2CCC(C(C(=O)O)N3CCC(c4c[nH]c5ccccc45)CC3)CC2)ccc1Br (stereo not drawn) [Cpd 101, [1-(4-bromo-3-methyl-phenylcarbamoyl)-piperidin-4-yl]-[4-(1H-indol-3-yl)-piperidin-1-yl]-acetic acid] | 130 nM | 20 nM | 140 nM |  |  | 
4 | Cc1cc(NC(=O)N2CCC(C(C(=O)O)N3CCC(c4c[nH]c5ccccc45)CC3)CC2)ccc1F (stereo not drawn) [Cpd 102, [1-(4-fluoro-3-methyl-phenylcarbamoyl)-piperidin-4-yl]-[4-(1H-indol-3-yl)-piperidin-1-yl]-acetic acid] | 860 nM | 260 nM | 230 nM |  |  | 
5 | O=C(O)C(C1CCN(C(=O)/C=C/c2cccs2)CC1)N1CCC(c2c[nH]c3ccccc23)CC1 (stereo not drawn) [Cpd 103, [4-(1H-indol-3-yl)-piperidin-1-yl]-{1-[(2E)-3-thiophen-2-yl-acryloyl]-piperidin-4-yl}-acetic acid] | 490 nM | 70 nM | 90 nM |  |  | 
6 | O=C(O)C(C1CCN(C(=O)/C=C/c2ccsc2)CC1)N1CCC(c2c[nH]c3ccccc23)CC1 (stereo not drawn) [Cpd 104, [4-(1H-indol-3-yl)-piperidin-1-yl]-{1-[(2E)-3-thiophen-3-yl-acryloyl]-piperidin-4-yl}-acetic acid] | 1010 nM | 90 nM | 160 nM |  |  | 
7 | Cc1ccc(NC(=O)N2CCC(C(C(=O)O)N3CCC(c4c[nH]c5ccccc45)CC3)CC2)cc1F (stereo not drawn) [Cpd 105, [1-(3-fluoro-4-methyl-phenylcarbamoyl)-piperidin-4-yl]-[4-(1H-indol-3-yl)-piperidin-1-yl]-acetic acid] | 130 nM | 90 nM | 10 nM |  |  | 
8 | Cc1ccc(NC(=O)N2CCC(C(C(=O)O)N3CCC(c4c[nH]c5ccccc45)CC3)CC2)cc1C(F)(F)F (stereo not drawn) [Cpd 106, [4-(1H-indol-3-yl)-piperidin-1-yl]-[1-(4-methyl-3-trifluoromethyl-phenylcarbamoyl)-piperidin-4-yl]-acetic acid] | 110 nM | 20 nM | 210 nM |  |  | 
9 | CS(=O)(=O)Nc1ccc2[nH]cc(C3CCN(C(C(=O)O)C4CCN(C(=O)Nc5ccc(Cl)c(Cl)c5)CC4)CC3)c2c1 (stereo not drawn) [Cpd 109, [1-(3,4-dichloro-phenylcarbamoyl)-piperidin-4-yl]-[4-(5-methanesulfonylamino-1H-indol-3-yl)-piperidin-1-yl]-acetic acid] | 30 nM | 20 nM | 30 nM |  |  | 
10 | O=C(/C=C/c1cc(F)c(F)c(F)c1)N1CCC(C(CO)N2CCC(c3c[nH]c4ccccc34)CC2)CC1 (stereo not drawn) [Cpd 112, (2E)-1-(4-{2-hydroxy-1-[4-(1H-indol-3-yl)-piperidin-1-yl]-ethyl}-piperidin-1-yl)-3-(3,4,5-trifluoro-phenyl)-propenone] | 0.6 nM | 4 nM | 4 nM |  |  | 
11 | O=C(/C=C/c1ccc(F)c(F)c1)N1CCC(C(CO)N2CCC(c3c[nH]c4ccccc34)CC2)CC1 (stereo not drawn) [Cpd 113, (2E)-3-(3,4-difluoro-phenyl)-1-(4-{2-hydroxy-1-[4-(1H-indol-3-yl)-piperidin-1-yl]-ethyl}-piperidin-1-yl)-propenone] |  |  |  | 1 nM | 6 nM | 95 nM
12 | O=C(O)C(C1CCN(C(=O)COc2ccc(Cl)c(Cl)c2)CC1)N1CCC(c2c[nH]c3ccccc23)CC1 (stereo not drawn) [Cpd 114, {1-[2-(3,4-dichloro-phenoxy)-acetyl]-piperidin-4-yl}-[4-(1H-indol-3-yl)-piperidin-1-yl]-acetic acid] |  | 350 nM |  | 210 nM |  | 290 nM
13 | O=C(/C=C/c1cc(F)cc(F)c1)N1CCC(C(CO)N2CCC(c3c[nH]c4ccccc34)CC2)CC1 (stereo not drawn) [Cpd 116, (2E)-3-(3,5-difluoro-phenyl)-1-(4-{2-hydroxy-1-[4-(1H-indol-3-yl)-piperidin-1-yl]-ethyl}-piperidin-1-yl)-propenone] | 2 nM | 0.6 nM | 0.4 nM |  |  | 
14 | O=C(/C=C/c1ccc(Cl)c(Cl)c1)N1CCC(C(CO)N2CCC(c3c[nH]c4ccccc34)CC2)CC1 (stereo not drawn) [Cpd 121, (2E)-3-(3,4-dichloro-phenyl)-1-(4-{2-hydroxy-1-[4-(1H-indol-3-yl)-piperidin-1-yl]-ethyl}-piperidin-1-yl)-propenone] | 0.1 nM | 0.2 nM | 12 nM |  |  | 
15 | O=C(Nc1ccc(Cl)c(Cl)c1)N1CCC(C(CO)N2CCC(c3c[nH]c4ccccc34)CC2)CC1 (stereo not drawn) [Cpd 123, 4-{2-hydroxy-1-[4-(1H-indol-3-yl)-piperidin-1-yl]-ethyl}-piperidine-1-carboxylic acid (3,4-dichloro-phenyl)-amide] | 4 nM | 9 nM | 5 nM |  |  | 
16 | CSc1ccc(NC(=O)N2CCC(C(C(=O)O)N3CCC(c4c[nH]c5ccccc45)CC3)CC2)cc1 (stereo not drawn) [Cpd 127, [4-(1H-indol-3-yl)-piperidin-1-yl]-[1-(4-methylsulfanyl-phenylcarbamoyl)-piperidin-4-yl]-acetic acid] | 820 nM | 760 nM | 750 nM |  |  | 
17 | O=C(Nc1cc(F)cc(F)c1)N1CCC(C(CO)N2CCC(c3c[nH]c4ccccc34)CC2)CC1 (stereo not drawn) [Cpd 129, 4-{2-hydroxy-1-[4-(1H-indol-3-yl)-piperidin-1-yl]-ethyl}-piperidine-1-carboxylic acid (3,5-difluoro-phenyl)-amide] | 20 nM | 40 nM | 80 nM |  |  | 
18 | COc1cccc2c(C3CCN(C(CO)C4CCN(C(=O)/C=C/c5cc(F)c(F)c(F)c5)CC4)CC3)c[nH]c12 (stereo not drawn) [Cpd 133, (2E)-1-(4-{2-hydroxy-1-[4-(7-methoxy-1H-indol-3-yl)-piperidin-1-yl]-ethyl}-piperidin-1-yl)-3-(3,4,5-trifluoro-phenyl)-propenone] | 0.8 nM | 10 nM | 40 nM |  |  | 
19 | CS(=O)(=O)N(CC(C1CCN(C(=O)/C=C/c2cc(F)cc(F)c2)CC1)N1CCC(c2c[nH]c3ccccc23)CC1)S(C)(=O)=O (stereo not drawn) [Cpd 134, N-{2-{1-[(2E)-3-(3,5-difluoro-phenyl)-acryloyl]-piperidin-4-yl}-2-[4-(1H-indol-3-yl)-piperidin-1-yl]-ethyl}-N-methanesulfonyl-methanesulfonamide] | 10 nM | 300 nM | 90 nM |  |  | 
20 | Cc1cc(C)cc(NC(=O)N2CCC(C(C(=O)O)N3CCC(c4c[nH]c5ccccc45)CC3)CC2)c1 (stereo not drawn) [Cpd 135, [1-(3,5-dimethyl-phenylcarbamoyl)-piperidin-4-yl]-[4-(1H-indol-3-yl)-piperidin-1-yl]-acetic acid] | 7100 nM | 940 nM | 770 nM |  |  | 
21 | O=C(O)C(C1CCN(C(=O)Nc2cc(C(F)(F)F)cc(C(F)(F)F)c2)CC1)N1CCC(c2c[nH]c3ccccc23)CC1 (stereo not drawn) [Cpd 136, [1-(3,5-bis-trifluoromethyl-phenylcarbamoyl)-piperidin-4-yl]-[4-(1H-indol-3-yl)-piperidin-1-yl]-acetic acid] | 130 nM | 80 nM | 140 nM |  |  | 
